Records with an inconclusive call do not appear.
Test system: SMN2 vs SMN1 luciferase splicing reporter cells
Assay: selective SMN2 exon splicing luciferase activators – cell-based, SMN2/SMN1 luciferase reporters (AID 1598)
Settings: measured here: SMN luciferase EC50 follow-up

Compared with `O=C1C=C2C(=CCOC2O)O1` (configuration not stated), `CC(C(=O)O)c1ccc(N2Cc3ccccc3C2=O)cc1` (configuration not stated) is 8.3-fold lower in EC50: 5 µM for the first, 0.6 µM for the second.

Compared with `CC[C@@]1(O)C(=O)OCc2c1cc1n(c2=O)Cc2cc3ccccc3nc2-1`, `CC[C@@]1(O)C[C@H](OC2CC(N(C)C)C(OC3CC(O)C(OC4CCC(=O)C(C)O4)C(C)O3)C(C)O2)c2c(cc3c(c2O)C(=O)c2c(O)cccc2C3=O)[C@H]1C(=O)OC` (some centres not stated) is 2.8-fold higher in EC50: 2.5 µM for the first, 7 µM for the second. The first is the more potent here.

Going from `O[N+]1=CC=CCC1=S.On1ccccc1=S.[Zn]` to `CO[C@@]1(NC(=O)Cc2cccs2)C(=O)N2C(C(=O)O)=C(COC(N)=O)CS[C@@H]21`, the EC50 rises from 1.25 µM to 2.5 µM (2-fold).

With `NC12CC3CC(CC(C3)C1)C2` the EC50 was 0.4 µM.
